Measured values from PubChem BioAssay (NCI).
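A five-concentration, 48-hour dose response in 96-well plates underlies each endpoint, interpolated linearly between surrounding concentrations. TGI denotes the concentration required for complete inhibition of growth.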

What was measured:
Assay in all cases: NCI-60 cell line screen, 48 h
A498 renal = system: A498 renal
A549 NSCLC = system: A549 NSCLC
BT-549 breast = system: BT-549 breast
HCC-2998 colon = system: HCC-2998 colon
HOP-62 NSCLC = system: HOP-62 NSCLC
HOP-92 NSCLC = system: HOP-92 NSCLC
HS 578T breast = system: HS 578T breast
K-562 leukemia = system: K-562 leukemia
M14 melanoma = system: M14 melanoma
MALME-3M melanoma = system: MALME-3M melanoma
MDA-MB-231 breast = system: MDA-MB-231 breast
NCI-H23 lung = system: NCI-H23 lung
OVCAR-5 ovarian = system: OVCAR-5 ovarian
PC-3 prostate = system: PC-3 prostate
RPMI-8226 leukemia = system: RPMI-8226 leukemia
SN12C renal = system: SN12C renal
SNB-19 CNS = system: SNB-19 CNS
SW-620 colon = system: SW-620 colon
TK-10 renal = system: TK-10 renal

Row | SMILES | TGI (A498 renal) | TGI (A549 NSCLC) | TGI (BT-549 breast) | TGI (HCC-2998 colon) | TGI (HOP-62 NSCLC) | TGI (HOP-92 NSCLC) | TGI (HS 578T breast) | TGI (K-562 leukemia) | TGI (M14 melanoma) | TGI (MALME-3M melanoma) | TGI (MDA-MB-231 breast) | TGI (NCI-H23 lung) | TGI (OVCAR-5 ovarian) | TGI (PC-3 prostate) | TGI (RPMI-8226 leukemia) | TGI (SN12C renal) | TGI (SNB-19 CNS) | TGI (SW-620 colon) | TGI (TK-10 renal)
1 | Cc1cc(C)c2c(=O)n(CN3CCC(O)(c4ccccc4)CC3)sc2n1 | > 100 µM | > 100 µM | > 100 µM | 57.3 µM | > 100 µM | > 100 µM | > 100 µM | > 100 µM | > 100 µM | 32.9 µM | > 100 µM | 83.1 µM | 68.7 µM | > 100 µM | > 100 µM | 86.2 µM | > 100 µM | 69.5 µM | 29.8 µM
2 | CCOC(=O)CCC(NC(=O)c1ccc(Nc2nc3ccccc3nc2-c2cccs2)cc1)C(=O)OCC (centres undefined) | > 100 µM | > 100 µM | > 100 µM | > 100 µM | > 100 µM | > 100 µM | > 100 µM | > 100 µM | > 100 µM | > 100 µM | > 100 µM | > 100 µM | > 100 µM | > 100 µM | > 100 µM | > 100 µM | > 100 µM | > 100 µM | > 100 µM
3 | CCOC(=O)CCC(NC(=O)Cc1ccc(Oc2nc3ccccc3nc2-c2cccs2)cc1)C(=O)OCC (centres undefined) | 84.1 µM | 62.8 µM | > 100 µM | > 100 µM | 11.8 µM | 47.7 µM | 81.1 µM | > 100 µM | > 100 µM | > 100 µM | 29.1 µM | > 100 µM | > 100 µM | > 100 µM | > 100 µM | > 100 µM | 37.2 µM | > 100 µM | 69.2 µM
4 | O=c1oc2ccc3ccccc3c2cc1-c1nc2ccccc2o1 | > 77.5 µM | > 55.2 µM | > 61.4 µM | > 100 µM | > 52.1 µM | 39.3 µM | > 68.8 µM | > 100 µM | > 56 µM | 26.5 µM | 35.6 µM | > 63.3 µM | > 100 µM | > 74.9 µM | > 63.4 µM | > 64.1 µM | > 46.6 µM | 55.1 µM | > 100 µM
5 | O=C(O)CC/C(=N\Nc1nsc2ccccc12)c1ccc(Cl)cc1 | 99.4 µM | > 82.2 µM | 74.3 µM | 36.8 µM | > 63.5 µM | > 100 µM | > 100 µM | > 100 µM | > 65.8 µM | > 100 µM | 93.2 µM | 59.2 µM | > 100 µM | > 100 µM | 45.9 µM | 57.7 µM | > 100 µM | > 87.8 µM | > 67.6 µM
6 | O=[N+]([O-])c1cc(Cl)cc2cc(Cl)cnc12 | > 100 µM | > 100 µM | > 100 µM | > 100 µM | > 100 µM | > 100 µM | > 100 µM | > 100 µM | > 100 µM | > 100 µM | > 100 µM | > 100 µM | > 100 µM | > 100 µM | > 100 µM | > 100 µM | > 100 µM | > 100 µM | > 100 µM
